From ChEMBL document CHEMBL1201862, “PubChem BioAssay data set” (2004)
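A five-concentration, 48-hour dose response in 96-well plates underlies each endpoint, interpolated linearly between surrounding concentrations. Abbreviation: GI50, concentration required for 50% inhibition of growth.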 Calls of active or inactive are those of the source. Cut-off read from the data, not from the text of the source: active = GI50 up to about 1.1 µM and inactive = higher.

Experiments:
Experiment in all cases: NCI tumour cell line growth inhibition, 48 h
[1] = system: SNB-19
[2] = system: SK-OV-3
[3] = system: KM12
[4] = system: MDA-N
[5] = system: K562
[6] = system: CAKI-1
[7] = system: OVCAR-4
[8] = system: HT-29
[9] = system: 786-0
[10] = system: NCI-H226
[11] = system: OVCAR-5
[12] = system: OVCAR-8
[13] = system: SK-MEL-2
[14] = system: BT-549
[15] = system: MDA-MB-435
[16] = system: SF-539
[17] = system: NCI-H522
[18] = system: MCF7
[19] = system: OVCAR-3
[20] = system: HOP-62

Compound	GI50 [1]	GI50 [2]	GI50 [3]	GI50 [4]	GI50 [5]	GI50 [6]	GI50 [7]	GI50 [8]	GI50 [9]	GI50 [10]	GI50 [11]	GI50 [12]	GI50 [13]	GI50 [14]	GI50 [15]	GI50 [16]	GI50 [17]	GI50 [18]	GI50 [19]	GI50 [20]
Cn1c2ccccc2n2c3nc4ccccc4nc3c(C#N)c12	> 100 µM (inactive)	99.5 µM (inactive)	9.44 µM (inactive)	> 100 µM (inactive)	65.3 µM (inactive)	> 100 µM (inactive)	> 71.8 µM (inactive)	14.3 µM (inactive)	93.8 µM (inactive)	> 100 µM (inactive)	10 µM (inactive)	74.1 µM (inactive)	> 4.65 µM (inactive)	> 100 µM (inactive)	> 85.7 µM (inactive)	62.8 µM (inactive)	5.9 µM (inactive)	> 75 µM (inactive)	> 100 µM (inactive)	10 µM (inactive)
CC(=O)OC/C=C(/CCl)CCC(Br)C(C)(C)Br.CC(=O)OC/C=C(\CCl)CCC(Br)C(C)(C)Br (stereo not given)	> 10 µM (inactive)	> 10 µM (inactive)	> 10 µM (inactive)	> 10 µM (inactive)	> 10 µM (inactive)	> 10 µM (inactive)	> 10 µM (inactive)	> 10 µM (inactive)	> 10 µM (inactive)	> 10 µM (inactive)	> 10 µM (inactive)	> 10 µM (inactive)	> 10 µM (inactive)	> 10 µM (inactive)	> 10 µM (inactive)	> 10 µM (inactive)	> 10 µM (inactive)	> 10 µM (inactive)	> 10 µM (inactive)	> 10 µM (inactive)
O=C(OCc1ccccc1)N(CCCCN(CCCNCc1ccccc1)C(=O)OCc1ccccc1)CCCNCc1ccccc1	0.431 µM (active)	14.5 µM (inactive)	0.43 µM (active)	0.288 µM (active)	0.208 µM (active)	1.42 µM (inactive)	1.66 µM (inactive)	0.24 µM (active)	0.289 µM (active)	1.05 µM (active)	1.63 µM (inactive)	1.54 µM (inactive)	1.36 µM (inactive)	1.62 µM (inactive)	0.242 µM (active)	0.243 µM (active)	0.647 µM (active)	7.76 µM (inactive)	1.39 µM (inactive)	1.6 µM (inactive)
CCOc1cc(C(c2c(O)c3ccccc3oc2=O)c2c(O)c3ccccc3oc2=O)ccc1OC	23.8 µM (inactive)	16.7 µM (inactive)	18.2 µM (inactive)	18.1 µM (inactive)	33.4 µM (inactive)	16.4 µM (inactive)	17.2 µM (inactive)	24.2 µM (inactive)	18.3 µM (inactive)	23.3 µM (inactive)	19.6 µM (inactive)	20 µM (inactive)	20.6 µM (inactive)	20.7 µM (inactive)	15.3 µM (inactive)	20.7 µM (inactive)	18.3 µM (inactive)	21 µM (inactive)	16.3 µM (inactive)	18.2 µM (inactive)
COc1cc(/C=C/C(=O)CC(=O)/C=C/c2cc(OC)c(O)c(OC)c2)cc(OC)c1O	7.74 µM (inactive)	7.94 µM (inactive)	6.15 µM (inactive)	4.74 µM (inactive)	8.69 µM (inactive)	9.04 µM (inactive)	23.7 µM (inactive)	7.76 µM (inactive)	5.82 µM (inactive)	10.2 µM (inactive)	10.3 µM (inactive)	10.4 µM (inactive)	7.57 µM (inactive)	8.95 µM (inactive)	6.17 µM (inactive)	8.77 µM (inactive)	5.81 µM (inactive)	14.9 µM (inactive)	6.85 µM (inactive)	11.7 µM (inactive)
COc1ccc2c(c1)c1nn(CCN3CCCCC3)c3ccc4c(=O)n(CCN(C)C)c(=O)n2c4c13	< 0.0138 µM (active)	0.565 µM (active)	< 0.01 µM (active)	< 0.0109 µM (active)	< 0.01 µM (active)	0.0219 µM (active)	< 0.01 µM (active)	< 0.01 µM (active)	< 0.01 µM (active)	0.0231 µM (active)	< 0.0105 µM (active)	< 0.01 µM (active)	0.04 µM (active)	0.245 µM (active)	< 0.0109 µM (active)	0.0284 µM (active)	< 0.01 µM (active)	< 0.01 µM (active)	0.0151 µM (active)	< 0.01 µM (active)
CC(C)C(/N=C/c1ccccc1O)C(=O)O (stereo not given)	> 100 µM (inactive)	> 100 µM (inactive)	> 100 µM (inactive)	> 100 µM (inactive)	> 100 µM (inactive)	> 100 µM (inactive)	> 100 µM (inactive)	> 100 µM (inactive)	> 100 µM (inactive)	> 100 µM (inactive)	> 100 µM (inactive)	> 100 µM (inactive)	20.6 µM (inactive)	> 100 µM (inactive)	> 100 µM (inactive)	> 100 µM (inactive)	> 100 µM (inactive)	> 100 µM (inactive)	> 100 µM (inactive)	> 100 µM (inactive)
O=S1OC[C@H](CCCl)O1 (stereo not given in full)	> 100 µM (inactive)	> 100 µM (inactive)	13.8 µM (inactive)	> 100 µM (inactive)	> 100 µM (inactive)	> 100 µM (inactive)	> 100 µM (inactive)	> 100 µM (inactive)	> 100 µM (inactive)	> 100 µM (inactive)	> 100 µM (inactive)	> 100 µM (inactive)	> 100 µM (inactive)	> 100 µM (inactive)	> 100 µM (inactive)	> 100 µM (inactive)	> 100 µM (inactive)	> 100 µM (inactive)	> 100 µM (inactive)	> 100 µM (inactive)
CN(C)/C=N/c1cc(=O)n(C)c(=O)n1C	> 100 µM (inactive)	> 100 µM (inactive)	> 100 µM (inactive)	> 100 µM (inactive)	> 100 µM (inactive)	> 100 µM (inactive)	> 100 µM (inactive)	> 100 µM (inactive)	> 100 µM (inactive)	> 100 µM (inactive)	> 100 µM (inactive)	> 100 µM (inactive)	> 100 µM (inactive)	> 100 µM (inactive)	> 100 µM (inactive)	> 100 µM (inactive)	> 100 µM (inactive)	> 100 µM (inactive)	> 100 µM (inactive)	> 100 µM (inactive)
Cc1ccc(C2SC(=N)Nc3c2c(C)nn3C(=O)c2ccc(Cl)cc2)cc1 (stereo not given)	> 10 µM (inactive)	> 10 µM (inactive)	> 10 µM (inactive)	> 10 µM (inactive)	> 10 µM (inactive)	> 10 µM (inactive)	> 10 µM (inactive)	> 10 µM (inactive)	> 10 µM (inactive)	> 10 µM (inactive)	> 10 µM (inactive)	> 10 µM (inactive)	> 10 µM (inactive)	> 10 µM (inactive)	> 10 µM (inactive)	> 10 µM (inactive)	> 10 µM (inactive)	> 10 µM (inactive)	> 10 µM (inactive)	> 10 µM (inactive)
CC[C@@]1(O)C(=O)OCc2c1cc1n(c2=O)Cc2c-1nc1ccccc1c2/C=N/NC(=O)c1ccc(N)cc1	0.0175 µM (active)	0.158 µM (active)	9.4 µM (inactive)	0.434 µM (active)	0.075 µM (active)	0.0589 µM (active)	3.73 µM (inactive)	4.68 µM (inactive)	0.0422 µM (active)	0.04 µM (active)	5.22 µM (inactive)	0.0944 µM (active)	5.37 µM (inactive)	0.391 µM (active)	0.197 µM (active)	< 0.01 µM (active)	< 0.0405 µM (active)	< 0.016 µM (active)	0.714 µM (active)	0.0333 µM (active)
CCCCC(=O)OC[n+]1cccc(-c2c(COC(=O)NC(C)C)c(COC(=O)NC(C)C)c3n2CCC3)c1	> 92.3 µM (inactive)	> 57.8 µM (inactive)	> 100 µM (inactive)	99.1 µM (inactive)	38.6 µM (inactive)	12.3 µM (inactive)	31.3 µM (inactive)	43 µM (inactive)	23.1 µM (inactive)	55.7 µM (inactive)	> 68.1 µM (inactive)	44 µM (inactive)	26.4 µM (inactive)	28.8 µM (inactive)	64.9 µM (inactive)	28.6 µM (inactive)	23 µM (inactive)	28.8 µM (inactive)	57.3 µM (inactive)	56.1 µM (inactive)
